Test system: splenic B cells
Assay: Proliferation of B cells in vitro (anti-CD40 and anti-IgM stimulated)
Format: cell-based, mouse
Protocol: Adult wild type mice (C57B16) were sacrificed and spleens were rapidly removed. After dissociation into single cell suspension and red blood cell lysis with NH4Cl, splenocytes were isolated by centrifugation over a Ficoll gradient. Subsequently, B lymphocytes were purified by one of two methods, complement mediated lysis or CD43 negative selection. For complement lysis, cells were incubated with anti-Thy 1 antibody (J1J), anti-L3T4 (GK 1.5), anti-Ly2 (TIB105, ATCC) and rabbit complement (Sigma) for two hours at 37°. CD43 negative selection was carried out using anti-CD43 (Serotec) and Miltenyi microbeads according to the manufacturer's instructions. Cells were cultured in RPMI 1640, 10% fetal calf serum for three days in the presence of anti-CD40 (mAb 1C10, generous gift of Hsiou-Chi Liou, Weill Medical College of Cornell University) and anti-IgM Fab′2 fragments (Jackson Immunoresearch). FGF1 (100 ng/ml) and Heparin (10 ug/ml) were added, and the number of cells was determined in triplicate compared to Heparin alone using a Coulter Counter (Coulter) or trypan blue exclusion with the same results. […]
FGF signaling inhibits splenic B cell proliferation. […] The values represent the percent decrease in total cell number observed with addition of 100 ng/ml FGF1 (determined in triplicate) as compared to heparin (10 ug/ml) alone. x=mean+/− s.e.m. […]

Substance: FGF1: fibroblast growth factor ligand added exogenously to B cells; stimulates the widest range of FGF receptors
- % Decrease in total cell number, mean +/- s.e.m. (mean of 6 experiments, 100 ng/ml FGF1 plus heparin vs heparin alone, 3 days, one sample t test p<0.01): 19.7 +/− 2.8%
- B cell number (purified spleen B cells with CD40 and BCR signaling activated, incubated in the presence of FGF-1): inhibited

From patent publication US9884116B2, “FGF modulation of in vivo antibody production and humoral immunity” (priority 2010, dated 2018)
